Source: US20080146669A1, “Novel Chloride Channel Pore Openers” (THE UAB RESEARCH FOUNDATION, priority 2005, published 2008)
Values belong to the compound of their own block, whether it stands above or below them.

Experiments:
wild-type CFTR = wild-type CFTR (Homo sapiens, UniProt P13569); test: Macroscopic currents in excised inside-out patches from BHK-CFTR cells; format: biochemical; parameters: expressed in transfected cells; provided by J. Hanrahan (McGill University)
Experimental: Cell culture DNA constructs and transfections. Baby hamster kidney (BHK) cells stably expressing wild type human CFTR (BHK-CFTR) were provided by J. Hanrahan (McGill University). BHK-CFTR cells were cultured in Dulbecco's modified Eagle's medium (DMEM (Mediatech)) supplemented with 5% fetal bovine serum (FBS) and 1 mM penicillin-streptomycin. The growth media for the BHK-CFTR cells also contained 0.5 mM methotrexate to maintain selection for CFTR-expressing cells (22). HEK-293T cells were transiently transfected with wild-type or mutant CFTR cDNA using the Lipofectamine transfection kit following manufacturer's recommendations (Invitrogen, Corp). HEK-293T cells were cultured in DMEM. All cells were grown on plastic coverslips for patch clamp recording and were used 2-3 days post-seeding. Electrophysiology and data analysis. Macroscopic and multi-channel currents were recorded in the excised, inside-out configuration. Patch pipettes were pulled from Corning 8161 glass to tip resistances of […] (macroscopic recordings) or 8-10 mOhm (micropatch studies). […] CFTR currents were recorded in symmetrical solution containing (in mM): 140 N-methyl-D-glucaniine-Cl, 3 MgCl2, 1 EGTA and 10 TES. The pH was adjusted to 7.3. Macroscopic currents were evoked using a ramp protocol from +80 to −80 mV with a 10 sec time period. Patches were held at −80 mV or +80 mV for micropatch (multichannel) recordings. All patch clamp experiments were performed at 21-23° C. Signals from macroscopic and single channel recording were filtered at 20 and 200 Hz, respectively. Data acquisition and analysis were performed using pCLAMP8 and pCLAMP9 software (Axon Instruments). Curve fitting for kinetic analysis was performed using Microcal Origin software. Averaged data are presented as mean +/−SEM. Statistical comparisons were made by performing unpaired t-tests unless otherwise indicated. Ussing Chamber Experiments-CFBE41o epithelial cells stably transfected with ΔF508-CFTR or transiently transfected with wild-type CFTR were cultured as electrically resistive monolayers and assayed in Ussing chambers as described (16). ΔF508-CFTR-expressing monolayers were grown at 27° C. for 2-3 days to enhance the surface expression of this temperature-sensitive mutant. A serosal-to-mucosal Cl^− gradient (120 to 1.2 mM) was imposed, followed by amiloride addition (100 μM) to block Na^+ currents. Compounds were added to both chambers at the indicated concentrations. A 3-mV voltage pulse was imposed every 100 s to monitor transepithelial resistance.

CFTR-minus cells = test: Currents across patches excised from CFTR-minus (untransfected) cells; format: biochemical
Experimental: (§1) Cell culture DNA constructs and transfections. Baby hamster kidney (BHK) cells stably expressing wild type human CFTR (BHK-CFTR) were provided by J. Hanrahan (McGill University). BHK-CFTR cells were cultured in Dulbecco's modified Eagle's medium (DMEM (Mediatech)) supplemented with 5% fetal bovine serum (FBS) and 1 mM penicillin-streptomycin. The growth media for the BHK-CFTR cells also contained 0.5 mM methotrexate to maintain selection for CFTR-expressing cells (22). HEK-293T cells were transiently transfected with wild-type or mutant CFTR cDNA using the Lipofectamine transfection kit following manufacturer's recommendations (Invitrogen, Corp). HEK-293T cells were cultured in DMEM. All cells were grown on plastic coverslips for patch clamp recording and were used 2-3 days post-seeding. Electrophysiology and data analysis. Macroscopic and multi-channel currents were recorded in the excised, inside-out configuration. Patch pipettes were pulled from Corning 8161 glass to tip resistances of […] (macroscopic recordings) or 8-10 mOhm (micropatch studies). CFTR channels were activated following patch excision by exposure of the cytoplasmic face of the patch to catalytic subunit of protein kinase A (PKA; 110 U/ml; Promega) and Mg-ATP (1.5 mM). CFTR currents were recorded in symmetrical solution containing (in mM): 140 N-methyl-D-glucaniine-Cl, 3 MgCl2, 1 EGTA and 10 TES. The pH was adjusted to 7.3. Macroscopic currents were evoked using a ramp protocol from +80 to −80 mV with a 10 sec time period. Patches were held at −80 mV or +80 mV for micropatch (multichannel) recordings. All patch clamp experiments were performed at 21-23° C. Signals from macroscopic and single channel recording were filtered at 20 and 200 Hz, respectively. Data acquisition and analysis were performed using pCLAMP8 and pCLAMP9 software (Axon Instruments). Curve fitting for kinetic analysis was performed using Microcal Origin software. Averaged data are presented as mean +/−SEM. Statistical comparisons were made by performing unpaired t-tests unless otherwise indicated. Ussing Chamber Experiments-CFBE41o epithelial cells stably transfected with ΔF508-CFTR or transiently transfected with wild-type CFTR were cultured as electrically resistive monolayers and assayed in Ussing chambers as described (16). ΔF508-CFTR-expressing monolayers were grown at 27° C. for 2-3 days to enhance the surface expression of this temperature-sensitive mutant. A serosal-to-mucosal Cl^− gradient (120 to 1.2 mM) was imposed, followed by amiloride addition (100 μM) to block Na^+ currents. Compounds were added to both chambers at the indicated concentrations. A 3-mV voltage pulse was imposed every 100 s to monitor transepithelial resistance.

ΔF508-CFTR [1] = biological target: T1, ΔF508-CFTR (Homo sapiens, UniProt P13569, DEL508-508); test: Macroscopic currents in excised patches from temperature-corrected HEK-293T cells expressing ΔF508-CFTR; format: biochemical; details: high PKA 110 U/ml without PKI
T1 construct: expressed in transfected cells; host or cells: HEK-293T, transient; grown at 28° C. for 24 hrs
Experimental: as §1

R347D-CFTR = biological target: T2, R347D-CFTR (Homo sapiens, UniProt P13569, R347D); test: Macroscopic currents in excised patches from HEK-293T cells transiently transfected with R347D-CFTR; format: biochemical
T2 construct: expressed in transfected cells; host or cells: HEK-293T, transient
Experimental: HEK-293T cells were transiently transfected with wild-type or mutant CFTR cDNA using the Lipofectamine transfection kit following manufacturer's recommendations (Invitrogen, Corp). HEK-293T cells were cultured in DMEM. All cells were grown on plastic coverslips for patch clamp recording and were used 2-3 days post-seeding. […] Macroscopic and multi-channel currents were recorded in the excised, inside-out configuration. Patch pipettes were pulled from Corning 8161 glass to tip resistances of 1.5-3.0 mOhm (macroscopic recordings) or 8-10 mOhm (micropatch studies). CFTR channels were activated following patch excision by exposure of the cytoplasmic face of the patch to catalytic subunit of protein kinase A (PKA; 110 U/ml; Promega) and Mg-ATP (1.5 mM). CFTR currents were recorded in symmetrical solution containing (in mM): 140 N-methyl-D-glucaniine-Cl, 3 MgCl2, 1 EGTA and 10 TES. The pH was adjusted to 7.3. Macroscopic currents were evoked using a ramp protocol from +80 to −80 mV with a 10 sec time period. Patches were held at −80 mV or +80 mV for micropatch (multichannel) recordings. All patch clamp experiments were performed at 21-23° C. Signals from macroscopic and single channel recording were filtered at 20 and 200 Hz, respectively. Data acquisition and analysis were performed using pCLAMP8 and pCLAMP9 software (Axon Instruments). […]

AR-S660A-CFTR = biological target: T3, AR-S660A-CFTR (Homo sapiens, UniProt P13569, DEL708-835/S660A); test: Macroscopic currents in excised HEK-293T patches, R domain deletion mutant, no PKA; format: biochemical; details: 50 μM
T3 construct: expressed in transfected cells; host or cells: HEK-293T, transient
Experimental: Cell culture DNA constructs and transfections. Baby hamster kidney (BHK) cells stably expressing wild type human CFTR (BHK-CFTR) were provided by J. Hanrahan (McGill University). BHK-CFTR cells were cultured in Dulbecco's modified Eagle's medium (DMEM (Mediatech)) supplemented with 5% fetal bovine serum (FBS) and 1 mM penicillin-streptomycin. The growth media for the BHK-CFTR cells also contained 0.5 mM methotrexate to maintain selection for CFTR-expressing cells (22). HEK-293T cells were transiently transfected with wild-type or mutant CFTR cDNA using the Lipofectamine transfection kit following manufacturer's recommendations (Invitrogen, Corp). HEK-293T cells were cultured in DMEM. All cells were grown on plastic coverslips for patch clamp recording and were used 2-3 days post-seeding. Electrophysiology and data analysis. Macroscopic and multi-channel currents were recorded in the excised, inside-out configuration. Patch pipettes were pulled from Corning 8161 glass to tip resistances of […] (macroscopic recordings) or 8-10 mOhm (micropatch studies). CFTR channels were activated following patch excision by exposure of the cytoplasmic face of the patch to catalytic subunit of protein kinase A (PKA; 110 U/ml; Promega) and Mg-ATP (1.5 mM). CFTR currents were recorded in symmetrical solution containing (in mM): 140 N-methyl-D-glucaniine-Cl, 3 MgCl2, 1 EGTA and 10 TES. […]

G551D-CFTR = biological target: T4, G551D-CFTR (Homo sapiens, UniProt P13569, G551D); test: Macroscopic currents in excised patches from HEK-293T cells expressing G551D-CFTR; format: biochemical
T4 construct: expressed in transfected cells; host or cells: HEK-293T, transient
Experimental: as §1, with “Ussing Chamber Experiments-CFBE41o epithelial cells stably transfected with ΔF508-CFTR or transiently transfected with wild-type CFTR were cultured as electrically resistive monolayers and assayed in Ussing chambers as described (16). ΔF508-CFTR-expressing monolayers were grown at 27° C. for 2-3 days to enhance the surface expression of this temperature-sensitive mutant. A serosal-to-mucosal Cl^− gradient (120 to 1.2 mM) was imposed, followed by amiloride addition (100 μM) to block Na^+ currents. Compounds were added to both chambers at the indicated concentrations. A 3-mV voltage pulse was imposed every 100 s to monitor transepithelial resistance.” left out

AF508-CFTR = details: tissue culture cells and mice; reported by Egan et al. (12); cited from earlier work
ΔF508-CFTR [2] = biological target: T1, ΔF508-CFTR; test: Ussing chamber transepithelial chloride currents, temperature-corrected ΔF508-CFTR CFBE41o- monolayers; format: cell-based; details: 1 μM compound with 1 μM forskolin; N=8-12
Experimental: as §1

T1 sequence (P13569 with tags, fused parts or gaps DEL508-508): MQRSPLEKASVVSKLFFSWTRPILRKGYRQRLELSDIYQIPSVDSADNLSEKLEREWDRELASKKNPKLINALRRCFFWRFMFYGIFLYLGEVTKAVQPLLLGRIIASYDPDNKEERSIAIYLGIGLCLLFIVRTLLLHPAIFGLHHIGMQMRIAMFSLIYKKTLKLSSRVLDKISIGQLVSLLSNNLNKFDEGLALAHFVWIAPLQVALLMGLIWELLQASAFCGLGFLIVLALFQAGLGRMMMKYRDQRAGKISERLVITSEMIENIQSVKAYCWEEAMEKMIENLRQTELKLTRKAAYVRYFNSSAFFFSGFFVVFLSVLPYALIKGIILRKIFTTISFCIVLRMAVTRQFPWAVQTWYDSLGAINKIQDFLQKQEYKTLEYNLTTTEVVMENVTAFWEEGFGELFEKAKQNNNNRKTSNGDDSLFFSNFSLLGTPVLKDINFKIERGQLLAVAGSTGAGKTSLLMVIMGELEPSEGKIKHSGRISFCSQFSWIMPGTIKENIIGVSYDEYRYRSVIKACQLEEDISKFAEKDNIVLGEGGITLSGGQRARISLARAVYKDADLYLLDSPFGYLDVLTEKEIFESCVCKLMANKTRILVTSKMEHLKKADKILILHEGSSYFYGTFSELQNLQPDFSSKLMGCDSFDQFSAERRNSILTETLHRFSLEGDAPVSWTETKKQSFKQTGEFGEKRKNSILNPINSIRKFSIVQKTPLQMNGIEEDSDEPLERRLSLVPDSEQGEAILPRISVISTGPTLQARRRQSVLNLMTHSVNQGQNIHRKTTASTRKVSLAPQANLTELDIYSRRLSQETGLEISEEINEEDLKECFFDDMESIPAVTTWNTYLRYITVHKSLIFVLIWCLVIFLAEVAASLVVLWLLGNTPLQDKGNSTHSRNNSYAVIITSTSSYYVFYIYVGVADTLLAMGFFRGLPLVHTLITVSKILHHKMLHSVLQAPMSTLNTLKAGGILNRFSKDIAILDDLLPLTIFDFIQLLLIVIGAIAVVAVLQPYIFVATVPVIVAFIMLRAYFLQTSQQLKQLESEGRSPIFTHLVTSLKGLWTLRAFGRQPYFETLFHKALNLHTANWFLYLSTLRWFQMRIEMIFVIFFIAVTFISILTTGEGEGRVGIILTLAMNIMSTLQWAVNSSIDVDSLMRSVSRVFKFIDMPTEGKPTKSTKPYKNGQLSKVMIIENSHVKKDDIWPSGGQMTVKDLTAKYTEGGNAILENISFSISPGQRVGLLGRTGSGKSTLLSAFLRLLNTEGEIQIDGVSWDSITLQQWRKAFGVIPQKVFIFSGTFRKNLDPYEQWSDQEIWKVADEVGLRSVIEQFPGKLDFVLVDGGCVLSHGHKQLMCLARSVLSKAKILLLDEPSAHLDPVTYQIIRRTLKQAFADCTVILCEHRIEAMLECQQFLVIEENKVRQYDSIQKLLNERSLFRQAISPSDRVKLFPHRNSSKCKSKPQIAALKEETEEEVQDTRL
Chain of wild-type CFTR (P13569 whole entry): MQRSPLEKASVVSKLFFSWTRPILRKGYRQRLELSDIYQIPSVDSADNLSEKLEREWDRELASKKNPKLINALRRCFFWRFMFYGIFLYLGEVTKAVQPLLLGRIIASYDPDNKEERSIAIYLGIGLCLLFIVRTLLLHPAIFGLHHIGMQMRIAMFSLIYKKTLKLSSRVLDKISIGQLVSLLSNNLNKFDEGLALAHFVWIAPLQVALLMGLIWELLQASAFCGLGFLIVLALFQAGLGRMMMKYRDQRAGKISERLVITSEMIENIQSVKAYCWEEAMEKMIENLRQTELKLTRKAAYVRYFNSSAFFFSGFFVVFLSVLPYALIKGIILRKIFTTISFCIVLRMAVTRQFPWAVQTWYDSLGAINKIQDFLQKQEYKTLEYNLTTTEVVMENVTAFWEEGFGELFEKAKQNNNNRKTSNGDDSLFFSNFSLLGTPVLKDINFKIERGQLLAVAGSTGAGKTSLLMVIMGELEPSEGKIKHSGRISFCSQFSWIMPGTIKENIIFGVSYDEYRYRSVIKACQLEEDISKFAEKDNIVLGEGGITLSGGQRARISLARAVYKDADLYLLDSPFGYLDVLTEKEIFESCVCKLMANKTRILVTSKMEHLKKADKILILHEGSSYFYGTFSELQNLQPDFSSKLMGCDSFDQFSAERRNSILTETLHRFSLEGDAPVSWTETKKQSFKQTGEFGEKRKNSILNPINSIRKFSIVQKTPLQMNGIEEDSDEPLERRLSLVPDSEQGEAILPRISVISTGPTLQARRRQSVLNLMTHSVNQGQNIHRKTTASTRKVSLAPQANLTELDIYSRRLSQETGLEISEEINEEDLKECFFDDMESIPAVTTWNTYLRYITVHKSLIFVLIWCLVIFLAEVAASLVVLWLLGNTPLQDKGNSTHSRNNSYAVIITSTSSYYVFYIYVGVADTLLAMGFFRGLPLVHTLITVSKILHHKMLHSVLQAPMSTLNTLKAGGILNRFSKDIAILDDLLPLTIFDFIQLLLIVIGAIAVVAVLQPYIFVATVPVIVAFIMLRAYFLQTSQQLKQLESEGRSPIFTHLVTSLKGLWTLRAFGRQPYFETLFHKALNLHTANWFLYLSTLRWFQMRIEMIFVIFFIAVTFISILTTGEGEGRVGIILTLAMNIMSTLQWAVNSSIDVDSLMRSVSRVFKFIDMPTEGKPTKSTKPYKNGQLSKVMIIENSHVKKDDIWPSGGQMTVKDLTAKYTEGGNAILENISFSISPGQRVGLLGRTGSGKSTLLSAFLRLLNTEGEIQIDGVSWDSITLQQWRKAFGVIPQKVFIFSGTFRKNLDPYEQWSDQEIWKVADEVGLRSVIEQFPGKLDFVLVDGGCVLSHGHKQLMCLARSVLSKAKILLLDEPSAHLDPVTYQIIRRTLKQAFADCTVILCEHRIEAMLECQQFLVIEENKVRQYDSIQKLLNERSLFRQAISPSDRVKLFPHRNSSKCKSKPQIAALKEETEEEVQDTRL
T2 sequence (P13569 whole entry R347D): as the sequence (P13569 whole entry) above, with R347D counted along it
T4 sequence (P13569 whole entry G551D): as the sequence (P13569 whole entry) above, with G551D counted along it
T3 sequence (P13569 with tags, fused parts or gaps S660A/DEL708-835): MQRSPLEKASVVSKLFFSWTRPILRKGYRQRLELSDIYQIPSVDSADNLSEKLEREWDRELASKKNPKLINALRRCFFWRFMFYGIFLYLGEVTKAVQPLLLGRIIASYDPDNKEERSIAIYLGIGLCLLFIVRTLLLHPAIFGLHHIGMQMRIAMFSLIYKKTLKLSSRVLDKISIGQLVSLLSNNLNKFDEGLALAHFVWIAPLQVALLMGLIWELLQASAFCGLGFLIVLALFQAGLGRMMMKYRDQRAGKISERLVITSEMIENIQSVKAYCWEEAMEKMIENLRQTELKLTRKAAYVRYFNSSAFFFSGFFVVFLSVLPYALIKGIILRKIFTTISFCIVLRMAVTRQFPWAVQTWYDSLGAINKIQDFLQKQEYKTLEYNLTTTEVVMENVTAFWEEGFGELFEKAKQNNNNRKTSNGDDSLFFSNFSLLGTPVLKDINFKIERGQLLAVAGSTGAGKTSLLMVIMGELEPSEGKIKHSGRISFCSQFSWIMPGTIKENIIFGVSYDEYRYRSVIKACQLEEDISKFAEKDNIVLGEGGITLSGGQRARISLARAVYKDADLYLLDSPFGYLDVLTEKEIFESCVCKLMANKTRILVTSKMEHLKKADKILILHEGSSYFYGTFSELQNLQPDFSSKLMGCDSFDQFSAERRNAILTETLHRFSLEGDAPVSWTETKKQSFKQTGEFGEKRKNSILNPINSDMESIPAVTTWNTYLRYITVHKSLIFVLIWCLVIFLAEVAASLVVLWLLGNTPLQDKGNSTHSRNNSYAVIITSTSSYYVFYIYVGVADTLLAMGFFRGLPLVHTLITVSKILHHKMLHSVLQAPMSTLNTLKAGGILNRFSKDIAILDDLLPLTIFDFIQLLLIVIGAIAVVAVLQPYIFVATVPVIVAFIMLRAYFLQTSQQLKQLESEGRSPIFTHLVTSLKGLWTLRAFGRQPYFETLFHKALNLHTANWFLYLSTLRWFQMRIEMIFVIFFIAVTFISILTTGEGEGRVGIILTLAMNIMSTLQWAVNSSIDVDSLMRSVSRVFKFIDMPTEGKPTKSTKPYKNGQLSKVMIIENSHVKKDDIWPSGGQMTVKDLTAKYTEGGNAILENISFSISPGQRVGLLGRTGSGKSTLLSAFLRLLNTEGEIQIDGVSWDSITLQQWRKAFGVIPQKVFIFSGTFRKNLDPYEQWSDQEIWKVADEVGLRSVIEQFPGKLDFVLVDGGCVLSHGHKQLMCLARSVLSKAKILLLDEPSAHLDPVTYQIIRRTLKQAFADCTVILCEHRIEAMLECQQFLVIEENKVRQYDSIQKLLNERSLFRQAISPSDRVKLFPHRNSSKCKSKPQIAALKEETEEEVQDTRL

increased CFTR currents, thiolated channels (wild-type CFTR; 0.5 mM): neither
Structure (SMILES): O=C(O)c1ccccc1Nc1ccccc1 [DPC, reference compound]

effect on ΔF508-CFTR macroscopic currents (ΔF508-CFTR [1]; 100 μM): dramatically stimulated | effect on currents of moderately phosphorylated wild-type channels (wild-type CFTR; 5-300 μM, high PKA followed by PKI, seven experiments): voltage-dependent block at all doses | effect on currents of highly phosphorylated CFTR channels (wild-type CFTR; continuous high PKA 110 U/ml without PKI): Only voltage-dependent block | effect on currents of moderately phosphorylated R347D-CFTR channels (R347D-CFTR; low doses, high PKA followed by PKI): stimulates currents in both directions | effect on currents in the absence of PKA (AR-S660A-CFTR): markedly stimulate | effect on G551D-CFTR activity (G551D-CFTR; 200-400 μM): markedly stimulated
Structure (SMILES): O=C(O)c1cc([N+](=O)[O-])ccc1NCCCc1ccccc1 [NPPB, 5-nitro-2-(3-phenylpropyl-amino)-benzoic acid, reference compound]
current induced at depolarizing potential in patches excised from CFTR-minus cells (CFTR-minus cells): absent | effect on currents across a patch from untransfected HEK-293T cells (CFTR-minus cells; untransfected HEK-293T): neither | effect on macroscopic current of thiolated (glutathionylated) CFTR channels (wild-type CFTR; 200 μM, high PKA 110 U/ml, 1.5 mM MgATP, PKI, diamide/GSH 20 μM): a large increase in current at depolarizing voltages | effect on currents of poorly phosphorylated, not thiolated CFTR channels (wild-type CFTR; 30-230 μM, low PKA 2 U/ml followed by PKI): stimulated CFTR currents at depolarizing potentials | effect on currents of poorly phosphorylated CFTR channels at higher concentrations (wild-type CFTR; higher concentrations of NPPB, low PKA then PKI): block was observed at all recording potentials | stimulation of R347D-CFTR currents at depolarizing potentials compared with wild type (R347D-CFTR; all levels of phosphorylation): to a greater extent than for wild type CFTR | concentration dependence of G551D-CFTR activation compared to the wild type channel (G551D-CFTR; NPPB titration, wild type activated with low PKA): appreciable shift toward higher concentrations

effect on CFTR channel activity (wild-type CFTR; 100 μM, data not shown): weak effect
Structure (SMILES): NS(=O)(=O)c1cc([N+](=O)[O-])ccc1NCCCc1ccccc1 [NPPB-sulf]

Further lines, the compound ahead of its results:

Structure (SMILES): NC(CCc1ccccc1)C(=O)O (stereo not drawn) [APB, reference compound]
stimulation of thiolated CFTR channels (wild-type CFTR; 400 μM, same conditions as FIG. 1A): fails to stimulate

Structure (SMILES): N#CS [SCN^−, reference compound]
increased CFTR currents, thiolated channels (wild-type CFTR; 10 mM): neither

Structure (SMILES): COc1cc(/C=C/C(=O)CC(=O)/C=C/c2ccc(O)c(OC)c2)ccc1O [curcumin]
effect on ΔF508-CFTR macroscopic currents (ΔF508-CFTR [1]; 10 μM): dramatically stimulated | time course and reversibility of the stimulation of CFTR current (wild-type CFTR): transient | voltage dependence of the stimulation of CFTR current (wild-type CFTR): voltage-independent | effect on moderately phosphorylated CFTR channels (wild-type CFTR; 0.5-40.5 μM, six experiments): stimulates moderately phosphorylated CFTR channels | biosynthetic maturation and functional correction of the ΔF508-CFTR mutant (AF508-CFTR): promotes the biosynthetic maturation and functional correction

Structure (SMILES): O=c1c(-c2ccc(O)cc2)coc2cc(O)cc(O)c12 [genistein, reference compound]
potentiation of the forskolin effect on ΔF508-CFTR transepithelial currents (ΔF508-CFTR [2]): failed to potentiate the forskolin response

Structure (SMILES): COc1ccc(Cl)cc1C(=O)NCCc1ccc(S(=O)(=O)NC(=O)NC2CCCCC2)cc1 [glibenclamide]
current induced at depolarizing potential in patches excised from CFTR-minus cells (CFTR-minus cells): absent
